From patent US20060069132A1, “Azolecarboxamide herbicides” (priority 2004, published 2006)

What was measured:
[1] = test system: barnyardgrass; assay: Test A pre-/postemergence herbicide test; format: in vivo, Echinochloa crus-galli
Method in brief: (§1)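 Visual injury rating on a 0–100 scale (0 no effect, 100 complete control) versus untreated controls, about ten days after treatment in greenhouse. Pre: directed soil spray onto seeded sandy loam. Post: spray to runoff on plants 2–10 cm tall at one- to two-leaf stage.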

[2] = test system: morningglory; assay: Test A pre-/postemergence herbicide test; format: in vivo, Ipomoea spp.
Method in brief: as §1

[3] = test system: bermudagrass; assay: Test C pre-/postemergence herbicide test; format: in vivo, Cynodon dactylon; conditions: for Bermudagrass plant response rating: 500 g ai/ha
Description: (§2) Seeds of plant species selected from bermudagrass (Cynodon dactylon (L.) Pers.), Surinam grass (Urochloa decumbens (Staph) R. D. Webster, previously named Brachiaria decumbens Stapf), cocklebur (Xanthium strumarium L.), corn (Zea mays L.), large crabgrass (Digitaria sanguinalis (L.) Scop.), woolly cupgrass (Eriochloa villosa (Thunb.) Kunth), giant foxtail (Setaria faberi Herrm.), goosegrass (Eleusine indica (L.) Gaertn.), johnsongrass (Sorghum halepense (L.) Pers.), kochia (Kochia scoparia (L.) Schrad.), lambsquarters (Chenopodium album L.), morningglory (Ipomoea coccinea L.), eastern black nightshade (Solanum ptycanthum Dunal), yellow nutsedge (Cyperus esculentus L.), pigweed (Amaranthus retroflexus L.), common ragweed (Ambrosia elatior L.), soybean (Glycine max (L.) Merr.), common (oilseed) sunflower (Helianthus annuus L.) and velvetleaf (Abutilon theophrasti Medik.) were planted and treated preemergence with test chemicals formulated in a non-phytotoxic solvent mixture which included a surfactant.
(§3) At the same time, plants selected from these crop and weed species and also winter barley (Hordeum vulgare L.), blackgrass (Alopecurus myosuroides Huds.), canarygrass (Phalaris minor Retz.), chickweed (Stellaria media (L.) Vill.), downy bromegrass (Bromus tectorum L.), green foxtail (Setaria viridis (L.) Beauv.), Italian ryegrass (Lolium multiflorum Lam.), wheat (Triticum aestivum L.), wild oat (Avenafatua L.) and windgrass (Apera spica-venti (L.) Beauv.) were treated with postemergence applications of some of the test chemicals formulated in the same manner. Plants ranged in height from 2 to 18 cm (1- to 4-leaf stage) for postemergence treatments. Plant species in the flooded paddy test consisted of rice (Oryza sativa), smallflower umbrella sedge (Cyperus difformis L.), ducksalad (Heteranthera limosa (Sw.) Willd.) and barnyardgrass (Echinochloa crus-galli (L.) Beauv.) grown to the 2-leaf stage for testing. Treated plants and controls were maintained in a greenhouse for 12 to 14 days, after which time all species were compared to controls and visually evaluated. Plant response ratings, summarized in Table C, are based on a scale of 0 to 100 where 0 is no effect and 100 is complete control. A dash (-) response means no test result.

[4] = test system: corn; assay: Test C pre-/postemergence herbicide test; format: in vivo, Zea mays; conditions: for Corn plant response rating: 500 g ai/ha
Description: as §2, §3

[5] = test system: large crabgrass; assay: Test C pre-/postemergence herbicide test; format: in vivo, Digitaria sanguinalis; conditions: for Crabgrass, Large plant response rating: 500 g ai/ha
Description: as §2, §3

[6] = test system: giant foxtail; assay: Test C pre-/postemergence herbicide test; format: in vivo, Setaria faberi; conditions: for Foxtail, Giant plant response rating: 500 g ai/ha
Description: as §2, §3

[7] = test system: kochia; assay: Test C pre-/postemergence herbicide test; format: in vivo, Kochia scoparia; conditions: for Kochia plant response rating: 500 g ai/ha
Description: as §2, §3

[8] = test system: morningglory; assay: Test C pre-/postemergence herbicide test; format: in vivo, Ipomoea coccinea; parameters: key to Plant response rating, Morningglory: 0 = no effect, 100 = complete control; conditions: for Morningglory plant response rating: 500 g ai/ha
Description: as §2, §3

[9] = test system: common ragweed; assay: Test C pre-/postemergence herbicide test; format: in vivo, Ambrosia elatior; parameters: key to Plant response rating, Ragweed: 0 = no effect, 100 = complete control; conditions: for Ragweed plant response rating: 500 g ai/ha
Description: as §2, §3

[10] = test system: rice; assay: Test C flooded paddy test; format: in vivo, Oryza sativa
Method in brief: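 Postemergence sprays applied to plants 2 to 18 cm tall (1- to 4-leaf stage); paddy species grown to 2-leaf stage under flooding. After 12 to 14 days in greenhouse, visual rating versus untreated controls on 0–100 scale (0 no effect, 100 complete control).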

[11] = test system: smallflower umbrella sedge; assay: Test C flooded paddy test; format: in vivo, Cyperus difformis
[12] = test system: ducksalad; assay: Test C flooded paddy test; format: in vivo, Heteranthera limosa
[13] = Postemergence, 500 g ai/ha, 0 to 100 scale, 0 no effect, 100 complete control
[14] = Postemergence, 2000 g ai/ha, 0 to 100 scale, 0 no effect, 100 complete control
[15] = Preemergence, 2000 g ai/ha, visual rating, 0 to 100 scale (0 no effect, 100 complete control)
[16] = preemergence, 500 g ai/ha, visual injury, 0 to 100 scale (0 no effect, 100 complete control)
[17] = Postemergence, 250 g ai/ha, scale 0 to 100, 0 no effect, 100 complete control
[18] = postemergence, 125 g ai/ha, scale 0 to 100
[19] = postemergence, 62 g ai/ha, scale 0 to 100
[20] = 125 g ai/ha, scale 0 to 100 (0 no effect, 100 complete control)
[21] = 250 g ai/ha, scale of 0 to 100, 0 is no effect, 100 is complete control
[22] = 500 g ai/ha, visual rating after 12 to 14 days, scale 0 to 100 (0 no effect, 100 complete control)
[23] = Preemergence, 500 g ai/ha, visual rating, 0 to 100 scale (0 no effect, 100 complete control)
[24] = Preemergence, 2000 g ai/ha, 0 to 100 scale, 0 no effect, 100 complete control

CCn1nc(C(C)(C)C)cc1C(=O)Nc1cccc(OC(F)(F)F)c1 [Compound 272]
Barnyardgrass plant response rating [1, 13]: 55
Plant response rating, Barnyardgrass [1, 14]: 90
Barnyardgrass plant response rating [1, 15]: 100
Barnyardgrass plant response rating [1, 16]: 70
Morningglory plant response rating [2, 13]: 100
Plant response rating, Morningglory [2, 14]: 100
Morningglory plant response rating [2, 15]: 55
Morningglory plant response rating [2, 16]: 20
Bermudagrass plant response rating ([3]; Postemergence, scale 0 to 100): 100
Plant response rating, Bermudagrass [3, 17]: 100
Plant response rating, Bermudagrass [3, 18]: 80
Plant response rating, Bermudagrass [3, 19]: 50
Corn plant response rating ([4]; Postemergence, scale 0 to 100): 20
Plant response rating, Corn [4, 17]: 15
Plant response rating, Corn [4, 18]: 15
Plant response rating, Corn [4, 19]: 10
Crabgrass, Large plant response rating ([5]; Postemergence, scale 0 to 100): 95
Plant response rating, Crabgrass, Large [5, 17]: 80
Plant response rating, Crabgrass, Large [5, 18]: 80
Plant response rating, Crabgrass, Large [5, 19]: 40
Foxtail, Giant plant response rating ([6]; Postemergence, scale 0 to 100): 75
Plant response rating, Foxtail, Giant [6, 17]: 60
Plant response rating, Foxtail, Giant [6, 18]: 45
Plant response rating, Foxtail, Giant [6, 19]: 15
Kochia plant response rating ([7]; Postemergence, scale 0 to 100): 100
Plant response rating, Kochia [7, 17]: 100
Plant response rating, Kochia [7, 18]: 100
Plant response rating, Kochia [7, 19]: 95
Morningglory plant response rating ([8]; Postemergence, scale 0 to 100): 100
Plant response rating, Morningglory [8, 17]: 100
Plant response rating, Morningglory [8, 18]: 100
Plant response rating, Morningglory [8, 19]: 80
Ragweed plant response rating ([9]; Postemergence, scale 0 to 100): 95
Plant response rating, Ragweed [9, 17]: 80
Plant response rating, Ragweed [9, 18]: 65
Plant response rating, Ragweed [9, 19]: 60
Rice plant response rating ([10]; 62 g ai/ha, scale 0 to 100): 0
Rice plant response rating [10, 20]: 10
Rice plant response rating [10, 21]: 15
Plant response rating, Rice [10, 22]: 20
Sedge, Umbrella plant response rating ([11]; 62 g ai/ha, scale 0 to 100): 30
Sedge, Umbrella plant response rating [11, 20]: 65
Sedge, Umbrella plant response rating [11, 21]: 75
Plant response rating, Sedge, Umbrella [11, 22]: 75
Ducksalad plant response rating ([12]; 62 g ai/ha, scale 0 to 100): 10
Ducksalad plant response rating [12, 20]: 20
Ducksalad plant response rating [12, 21]: 40
Plant response rating, Ducksalad [12, 22]: 85

C=CCOC(=O)c1cccc(NC(=O)c2cc(C(C)(C)C)nn2CC)c1 [Compound 85]
Barnyardgrass plant response rating [1, 13]: 20
Plant response rating, Barnyardgrass [1, 14]: 25
Barnyardgrass plant response rating [1, 23]: 0
Barnyardgrass plant response rating [1, 24]: 0
Morningglory plant response rating [2, 13]: 20
Plant response rating, Morningglory [2, 14]: 25
Morningglory plant response rating [2, 23]: 0
Morningglory plant response rating [2, 24]: 5
Bermudagrass plant response rating ([3]; Postemergence, scale 0 to 100): 70
Plant response rating, Bermudagrass [3, 18]: 65
Plant response rating, Bermudagrass [3, 19]: 0
Corn plant response rating ([4]; Postemergence, scale 0 to 100): 45
Plant response rating, Corn [4, 17]: 35
Plant response rating, Corn [4, 18]: 30
Plant response rating, Corn [4, 19]: 30
Crabgrass, Large plant response rating ([5]; Postemergence, scale 0 to 100): 40
Plant response rating, Crabgrass, Large [5, 17]: 10
Plant response rating, Crabgrass, Large [5, 18]: 5
Plant response rating, Crabgrass, Large [5, 19]: 0
Foxtail, Giant plant response rating ([6]; Postemergence, scale 0 to 100): 70
Plant response rating, Foxtail, Giant [6, 17]: 50
Plant response rating, Foxtail, Giant [6, 18]: 20
Plant response rating, Foxtail, Giant [6, 19]: 10
Kochia plant response rating ([7]; Postemergence, scale 0 to 100): 90
Plant response rating, Kochia [7, 17]: 90
Plant response rating, Kochia [7, 18]: 60
Plant response rating, Kochia [7, 19]: 20
Morningglory plant response rating ([8]; Postemergence, scale 0 to 100): 80
Plant response rating, Morningglory [8, 17]: 60
Plant response rating, Morningglory [8, 18]: 40
Plant response rating, Morningglory [8, 19]: 10
Ragweed plant response rating ([9]; Postemergence, scale 0 to 100): 60
Plant response rating, Ragweed [9, 17]: 40
Plant response rating, Ragweed [9, 18]: 10
Plant response rating, Ragweed [9, 19]: 10
